The source of these data is patent US20190345138A1, “HETEROCYCLIC AMIDES AS KINASE INHIBITORS” (GlaxoSmithKline Intellectual Property Development Limited, priority 2016, published 2019).

Values joined by “and” are separate entries in the source; they are usually repeats but may differ in a detail not shown here. Equal entries are not always repeated.

The conditions of data set [1]: background statement; cited from earlier work.
The target in data set [2] is T1, RIP1 kinase (Homo sapiens, UniProt Q13546).
T1 sequence (Q13546 1-375 limits assumed): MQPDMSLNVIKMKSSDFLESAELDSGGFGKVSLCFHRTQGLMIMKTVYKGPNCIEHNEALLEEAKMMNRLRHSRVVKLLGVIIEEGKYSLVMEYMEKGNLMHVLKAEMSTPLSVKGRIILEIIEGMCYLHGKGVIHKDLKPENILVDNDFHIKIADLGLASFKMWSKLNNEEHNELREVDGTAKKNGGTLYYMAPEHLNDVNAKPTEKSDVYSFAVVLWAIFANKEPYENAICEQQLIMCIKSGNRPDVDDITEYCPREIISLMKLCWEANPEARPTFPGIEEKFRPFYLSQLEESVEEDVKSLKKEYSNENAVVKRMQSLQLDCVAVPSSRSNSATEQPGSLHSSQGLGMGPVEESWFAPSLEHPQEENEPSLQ
The data set can be described thus: fluorescent polarization based binding assay. The following applies: mean of a minimum of 2 experiments. The source says: A fluorescent polarization based binding assay was used to assess the activity of the compounds of this invention, the details of which are disclosed in International Patent Appln. No. PCT/IB2014/059004, now, International Patent Appln. Pub.

For data set [3], the system named is human monocytic leukemia U937 cells. Kind of data set: necroptosis assay in U937 cells. It counts as cell-based. The following applies: viability by cellular ATP (Cell Titer-Glo). The method, boiled down:
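Necroptosis was induced in human U937 or mouse L929 cells, and viability was quantified as cellular ATP with Cell Titer-Glo. Data are means±standard deviation.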
A general note: Cellular ATP, detected with luciferase, serves as a proxy for viable cell number.

For data set [4], the system named is mouse L929 fibrosarcoma cells. Kind of data set: necroptosis assay in L929 cells. It counts as cell-based. The following applies: L929 cells, viability by cellular ATP (Cell Titer-Glo), read-out: pIC50, inhibited necrosis in L929 cells (converted). How it is done: The efficacy of RIP1 inhibitors can be tested […] in vitro using a human monocytic leukemia U937 or mouse L929 fibrosarcoma cells in a necroptosis assay. As determined using the method described in S. He et al., Cell, 137(6):1100-1111 (2009) and International Patent Appln. No. PCT/IB2014/059004, now, International Patent Appln. Pub.
Viability was measured by quantitating cellular levels of ATP using the Cell Titer-Glo kit. All data are means±standard deviation of the mean.

Data set [5] has as its system TNF-driven systemic inflammatory response syndrome model. Kind of data set: TNF-driven systemic inflammatory response syndrome model (TNF/zVAD or TNF alone), temperature loss. The following applies: Mus musculus, po, pre-dosed 15 minutes before i.v. mouse TNF alone or with zVAD; for inhibition in vivo at 10 mg/kg: 10 mg/kg PO; for inhibition in vivo at 3 mg/kg: 3 mg/kg PO. The data set is classed as in vivo. From the text: The efficacy of RIP1 inhibitors can be tested in mice in vivo using a TNF-driven systemic inflammatory response syndrome model (L. Duprez et al. Immunity 35(6):908-918, (2011)) using TNF plus the caspase inhibitor zVAD or TNF alone. The TNF/zVAD model is terminated at ˜3 hrs and the TNF alone model is terminated at ˜8 hrs (under IACUC guidelines for temperature loss). TNF (or TNF/zVAD) induced manifestations include temperature loss, the production of numerous cytokines (including IL-6, IL-1b, MIP1β and MIP2) in the periphery, liver and intestinal inflammation and an increase of markers of cellular (LDH and CK) and liver damage (AST and ALT) in the serum. Inhibition of these TNF alone or TNF/zVAD induced manifestations can be shown by PO pre-dosing with selected compounds. For example, mice (8 mice per group) were pre-dosed PO with vehicle or compound 15 minutes before i.v. administration of mouse TNF (30 μg/mouse) alone or in combination with zVAD (0.4 mg/mouse) simultaneously. Temperature loss in the mice was measured by rectal probe. The study was terminated when the control group lost 7 degrees, per our IACUC protocol. All data are shown as means±standard error of the mean.

As for `CN1C(=O)C(Cc2c[nH]c3ccccc23)NC1=S` (stereo not drawn) [Necrostatin-1], in data set [1], the oral bioavailability entry is given as “poor”.

In the case of `NC(=O)c1cnc(N2CCC(C(=O)N3N=CC[C@H]3c3ccccc3)CC2)nc1` [Example 131, (S)-2-(4-(5-phenyl-4,5-dihydro-1H-pyrazole-1-carbonyl)piperidin-1-yl)pyrimidine-5-carboxamide], the IC50 in data set [2] is roughly 0.0398 µM; in data set [3] (Homo sapiens, U-937, U937 cells, read-out: pIC50, inhibited necrosis in U937 cells (converted)), roughly 0.158 µM; in data set [4], roughly 3.98 µM. The inhibition in vivo at 10 mg/kg in data set [5] came out at 83%.

As to `NC(=O)c1cc(N2CCC(C(=O)N3N=CC[C@H]3c3cncc(F)c3)CC2)ncn1` [Example 108, (S)-6-(4-(5-(5-fluoropyridin-3-yl)-4,5-dihydro-1H-pyrazole-1-carbonyl)piperidin-1-yl)pyrimidine-4-carboxamide], the IC50 in data set [2] is 0.001 to 0.0316 µM and ~0.0316 µM; in data set [4] it was roughly 10 µM. In addition, in data set [3] (U937 cells), the “pIC50, inhibited necrosis in U937 cells” value is on record as roughly 7.3. Further, the inhibition in vivo at 0.1 mg/kg in data set [5] (0.1 mg/kg PO) is -4%. For the same compound, the inhibition in vivo at 1 mg/kg in data set [5] (1.0 mg/kg PO) is -11%. Further, the inhibition in vivo at 10 mg/kg in data set [5] came out at 54%. Further, the inhibition in vivo at 100 mg/kg in data set [5] (100 mg/kg PO) was found to be 94%.

Consider `NC(=O)c1cc(N2CCC(C(=O)N3N=CC[C@H]3c3cc(F)cc(F)c3)CC2)ncn1` [Example 85, (S)-6-(4-(5-(3,5-difluorophenyl)-4,5-dihydro-1H-pyrazole-1-carbonyl)piperidin-1-yl)pyrimidine-4-carboxamide], for which the IC50 in data set [2] is 0.001 to 0.0316 µM and 0.001 to 0.01 µM and ~0.01 µM; in data set [4], roughly 0.316 µM. In data set [5], the inhibition in vivo at 3 mg/kg turned out to be 88%.

For `NC(=O)c1ccnc(N2CCC(C(=O)N3N=CC[C@H]3c3cncc(F)c3)CC2)n1` [Example 109, (S)-2-(4-(5-(5-fluoropyridin-3-yl)-4,5-dihydro-1H-pyrazole-1-carbonyl)piperidin-1-yl)pyrimidine-4-carboxamide], the IC50 is 0.001 to 0.0316 µM and ~0.0251 µM in data set [2]; roughly 0.251 µM in data set [4]. Further, in data set [5], the inhibition in vivo at 3 mg/kg was determined as 84%.

Regarding `N#Cc1cccc([C@@H]2CC=NN2C(=O)C2CCN(c3nccc(C(N)=O)n3)CC2)c1` [Example 71, (S)-2-(4-(5-(3-cyanophenyl)-4,5-dihydro-1H-pyrazole-1-carbonyl)piperidin-1-yl)pyrimidine-4-carboxamide], the IC50 in data set [2] is 0.001 to 0.0316 µM and ~0.0158 µM; in data set [4] it was roughly 0.794 µM. Also, the inhibition in vivo at 10 mg/kg in data set [5] came out at 93%.

The term inhibition in vivo denotes the drop in the measured response relative to a control, in per cent.
